e = 2'-O-(2-methoxyethyl) (MOE); d = 2'-deoxy (DNA)
Legend:
Assay type in all cases: cell-based, human
[1] = tested on: MDA-MB-435s and MDA-MB-231 cells; test: Apoptosis assays (microscopy, in situ TUNEL, PARP cleavage Western blot) in breast cancer cells
Protocol: To assess whether apoptosis was occurring in the cells after blocking of Stat3 the cells were examined microscopically and a TUNEL assay and poly-(ADP)-ribose polymerase (PARP) cleavage assay were performed.
(§1) In situ terminal deoxyribonucleotidyl transferase-mediated dUTP nick end labeling and cellular proliferation assays. MDA-MB-435s and MDA-MB-231 cells were transfected with antisense or control mismatch oligonucleotides. After 48 hours, cells were labeled for apoptotic DNA strand breaks by terminal deoxyribonucleotidyl transferase-mediated dUTP nick end labeling (TUNEL) reaction using an in situ cell death detection assay (Roche Applied Science, Indianapolis, Ind.) according to the instructions of the supplier. TUNEL-positive nuclei were counted and the apoptotic index was expressed as the number of apoptotic cells in one microscopic field. To determine cellular viability, cells were harvested by trypsinization and counted by trypan blue exclusion assay at 24 and 48 hours after transfection. All experiments were done in triplicate.
(§2) Western blot analyses. Cells were lysed in a buffer containing 10 mmol/L Tris-HCl (pH 8.0), 150 mmol/L NaCl, 1% NP40, 0.5% sodium deoxycholate, 0.1% SDS, 1 mmol/L EDTA (pH 8.0), 2 mmol/L phenylmethylsulfonyl fluoride, 2 μg/mL aprotinin, 2 μg/mL leupeptin, and 1 mmol/L Na3VO4. For Western blot analyses, 30 μg of total extracted proteins were applied per lane before SDS-PAGE. Following transfer to nitrocellulose membranes, protein expression levels were detected using polyclonal anti-poly-(ADP-ribose) polymerase antibodies (Cell Signaling Technology, Beverly, Mass.). The expression of β-actin (Sigma-Aldrich, St. Louis, Mo.) was used as a normalization control for protein loading.

[2] = tested on: phosphorylated Stat3; test: Western blot for phosphorylated Stat3 after gefitinib in NSCLC cells; conditions: 24 hours
Protocol: (§3) Protein expression analysis. Cell lysates were normalized for total protein content (50 μg) and subjected to SDS-PAGE as described by Song et al., Oncogene 22:4150-65 (2003). Primary antibodies used in these studies consisted of Stat3 (Transduction Laboratories; BD Biosciences, Mississauga, Ontario, Canada), pStat3 Y705 (Cell Signaling Technology), cleaved poly (ADP-ribose) polymerase (Cell Signaling Technology, Beverly, Mass.), Mcl-1 (Santa Cruz Biotechnology, Santa Cruz, Calif.), Bcl-2 (DAKO, Carpinteria, Calif.), Bcl-xL (PharMingen, San Diego, Calif.), and β-actin (Sigma-Aldrich, Milwaukee, Wis.). Detection of proteins was accomplished using horseradish peroxidase-conjugated secondary antibodies and enhanced chemiluminescence purchased through Amersham Biosciences (Pittsburgh, Pa.).

[3] = tested on: Survivin; test: RNase protection assay and Western blot for Survivin after Stat3 antisense
Protocol: RNase protection assay. Total RNA was isolated from MDA-MB-435s cells using the RNAeasy mini kit (Qiagen, Valencia, Calif.). RNase protection assays were carried out with the Riboquant hStress-1 template set containing Bcl-xL and Mcl-1 probes or custom-made multiprobe templates containing Stat3 probes (BD PharMingen, San Diego, Calif.). Briefly, the multiprobe templates were synthesized by in vitro transcription with incorporation of […] and purified on Quick Spin RNA columns (Roche Applied Science, Indianapolis, Ind.). Labeled probe (1×10^6 cpm) was hybridized with 10 μg of total RNA through a temperature gradient of 90° C. to 56° C. over a 16-hour period. […]
Western blot analyses. […] Following transfer to nitrocellulose membranes, protein expression levels were detected using polyclonal anti-poly-(ADP-ribose) polymerase antibodies (Cell Signaling Technology, Beverly, Mass.). […]
The microarray data were validated using an RNase protection assay using a Survivin probe (BD PharMingen, San Diego, Calif.) as described above. […] Protein expression levels were detected using polyclonal anti-Stat3 (Santa Cruz Biotechnology, Santa Cruz, Calif.) and polyclonal anti-Survivin (Alpha Diagnostics International, San Antonio, Tex.) antibodies.

[4] = tested on: Stat3; test: EMSA of Stat3 DNA-binding activity after antisense transfection; conditions: MDA-MB-435s cells, 24 and 36 hours after transfection
Protocol: (§4) The human breast cancer cell line MDA-MB-435s, harbors activated Stat3. The cells were grown in DMEM supplemented with 10% fetal bovine serum, 100 units/mL penicillin, and 100 μg/mL streptomycin. The cells were transfected with Stat3 antisense or mismatch oligonucleotides using Lipofectamine-Plus as described by the supplier (Life Technologies, Grand Island, N.Y.). The Stat3 antisense (5′[…]-3′) (SEQ ID NO: 1) and control mismatch (5′[…]-3′) (SEQ ID NO: 2) oligonucleotides were synthesized using phosphorothioate chemistry. To increase stability, oligonucleotides were synthesized with 2′-O-methoxyethyl modification of the five or three underlined terminal nucleotides. The final concentration for Stat3 antisense and control mismatch oligonucleotides was […]. Twenty-four and 36 hours after transfection, the mRNA levels and DNA-binding activities of Stat3 were measured by RNase protection and electrophoretic mobility shift (EMSA) assays, respectively.
Nuclear extract preparation and EMSA. […] Following incubation of radiolabeled probes with nuclear extracts, protein-DNA complexes were resolved by nondenaturing PAGE and detected by autoradiography. […]

[5] = tested on: MDA-MB-435s and MDA-MB-231 cells; test: Cellular viability by trypan blue exclusion assay; conditions: after 24 or 48 hours of incubation
Protocol: as §1

[6] = tested on: Stat3 mRNA; test: RNase protection assay of Stat3 mRNA after transfection with antisense oligonucleotides; conditions: MDA-MB-435s cells; compared with the mismatch oligonucleotides; 24 and 36 hours after transfection
Protocol: as §4
RNase protection assay. Total RNA was isolated from MDA-MB-435s cells using the RNAeasy mini kit (Qiagen, Valencia, Calif.). RNase protection assays were carried out with the Riboquant hStress-1 template set containing Bcl-xL and Mcl-1 probes or custom-made multiprobe templates containing Stat3 probes (BD PharMingen, San Diego, Calif.). […]

[7] = tested on: MDA-MB-435s cells; test: Microarray gene expression profiling after blockade of Stat3; conditions: 24 hours
Protocol: Microarray gene expression profiling analyses were completed to assess the gene expression changes associated with blockade of Stat3 activity. Five micrograms of total RNA collected from MDA-MB-435s cells treated with antisense or control mismatch oligonucleotides for 24 hours served as the mRNA sources for microarray analysis. The poly(A) mRNA was specifically converted to cDNA and then amplified and labeled with biotin following the procedure initially described by Van Gelder et al., Proc. Natl. Acad. Sci. USA 87:1663-67 (1990) which is incorporated herein by reference. Hybridization with the biotin-labeled DNA, staining, and scanning of the microarray chips followed the prescribed procedure outlined in the Affymetrix technical manual.
The oligonucleotide probe arrays were Human Genome U133A chips (Affymetrix, Santa Clara, Calif.). Scanned output files were visually inspected for hybridization artifacts and then analyzed using Affymetrix Microarray MAS 5.0 software. The MAS 5.0 software identifies the increased and decreased genes between any two samples with a statistical algorithm that assesses the behavior of oligonucleotide probe sets designed to detect the same gene. Probe sets that yielded a change at P<0.0045 were identified as changed (increased or decreased). In addition, the data were processed using robust multiarray analysis as described by Bolstad et al., Bioinformatics 19:185-93 (2003) which is incorporated herein by reference in its entirety. […] Empirical estimates of the null distribution were determined using permutation analysis, thereby controlling the number of false positives. The significance analysis of microarrays (as described by Tusher et al., Proc Natl Acad Sci USA 98:5116-21 (2001), which is incorporated herein by reference) implements this approach to address the multiple testing problem and was also applied to the data analysis.

[8] = tested on: H1650, H1975 and H1299 cells; test: Western blot for Stat3, cleaved PARP and Bcl-2 family proteins after antisense Stat3 in NSCLC cells
Protocol: as §3
To determine if Stat3 plays a role in survival in EGFR mutant cells, antisense Stat3 oligonucleotides were used to down-regulate Stat3 as described above. […] Levels of the Bcl-2 family proteins Bcl-xL, Mcl-1, and Bcl-2 were reduced in cells treated with antisense Stat3 consistent with the known role of Stat3 in regulating these proteins (FIG. 9E).

[9] = tested on: Stat3; test: IL-6 stimulation: EMSA of Stat3 DNA-binding activity; conditions: serum-starved MDA-MB-435s cells; IL-6 20 or 30 ng/mL; within 30 minutes
Protocol: Nuclear extract preparation and EMSA. Nuclear extracts were prepared as previously described by Yu et al., Science 269:81-83 (1995), which is incorporated herein by reference, by high-salt extraction into 30 to 70 μL buffer [20 mmol/L HEPES (pH 7.9), 420 mmol/L NaCl, 1 mmol/L EDTA, 20% glycerol, 20 mmol/L NaF, 1 mmol/L Na3VO4, 1 mmol/L Na4P2O7, 1 mmol/L DTT, 0.5 mmol/L phenylmethylsulfonyl fluoride, 0.1 μmol/L aprotinin, 1 μmol/L leupeptin, and 1 μmol/L antipain]. For EMSA, 5 μg of total nuclear protein were used for each lane. EMSA was done using a ^32P-labeled oligonucleotide probe containing a high-affinity cis-inducible element (hSIE, m67 variant) derived from the c-fos gene promoter (sense strand 5′[…]-3′) (SEQ ID NO: 3) that binds activated Stat3 proteins. Following incubation of radiolabeled probes with nuclear extracts, protein-DNA complexes were resolved by nondenaturing PAGE and detected by autoradiography. Stat3 protein was supershifted in the EMSA by preincubation with Stat3 antibody (C-20X, Santa Cruz Biotechnology, Santa Cruz, Calif.).
To investigate whether cytokine-induced Stat3 activity correlates with increased Survivin expression in breast cancer cells, cells were stimulated with IL-6 to increase Stat3 activation. […]

[10] = tested on: MDA-MB-435s cells; test: IL-6 stimulation: Western blot for phosphor-Stat3 and Survivin; conditions: IL-6 treatment, after 48 hours
Protocol: as §2
To investigate whether cytokine-induced Stat3 activity correlates with increased Survivin expression in breast cancer cells, cells were stimulated with IL-6 to increase Stat3 activation. For IL-6 stimulation, cells were serum-starved (DMEM supplemented with 0.1% fetal bovine serum) for 18 hours before IL-6 treatment (20 or 30 ng/mL in DMEM) for 30 minutes (EMSA) or 48 hours (Western blot analysis). Nuclear extracts and cell lysates were prepared for EMSA and Western blot analysis, respectively, as described above.

[11] = Survivin antisense 300 nmol/L, MDA-MB-435s and MDA-MB-231 cells

Q: How did the “Poly-(ADP-ribose) polymerase cleavage” value [1, 11] turn out when “antisense oligonucleotides directed against Survivin: Antisense oligonucleotides directed against Survivin 5′-CCCAGCCTTCCAGCTCCTTG-3′ (SEQ ID NO: 4), synthesized using phosphorothioate chemistry (sugars from the 5' end e3 d14 e3, all phosphorothioate, methylation of C not given here; listed as Homo sapiens)” was run?
A: evident

Q: What about the “in situ TUNEL staining” value [1, 11] of the same molecule?
A: evident

Q: Which “phosphorylated Stat3” value ([2]; H1650 cells with the L746-p753 deletion mutation in EGFR) does the source give for `COc1cc2ncnc(Nc3ccc(F)c(Cl)c3)c2cc1OCCCN1CCOCC1` [gefitinib, Gefitinib] here?
A: no effect on phosphorylated Stat3

Q: And the “phosphorylated Stat3” value ([2]; H1975 cells)?
A: no effect on phosphorylated Stat3

Q: What about the “phosphorylated Stat3” value ([2]; H3255 cells with the L858R mutation in EGFR, increasing doses) of the same molecule?
A: complete inhibition of phosphorylated Stat3

Q: Which “mRNA expression of Survivin (RNase protection assay)” value ([3]; antisense oligonucleotide-treated breast cancer cells) does the source give for “Stat3 antisense: Stat3 antisense 5′GCTCCAGCATCTGCTGCTTC-3′ (SEQ ID NO: 1), phosphorothioate chemistry with 2′-O-methoxyethyl modification of terminal nucleotides (sugars from the 5' end e5 d10 e5, all phosphorothioate, methylation of C not given here; listed as Homo sapiens)” here?
A: decrease in mRNA expression of Survivin

Q: And the “Survivin protein expression (Western blot)” value ([3]; breast cancer cells)?
A: decreased Survivin expression

Q: And the “Stat3 DNA-binding activity” value [4]?
A: significant decrease in Stat3 DNA-binding activity

Q: And the “growth inhibition by trypan blue exclusion” value [5]?
A: induced significant growth inhibition

Q: And the “apoptosis by in situ TUNEL assay” value ([1]; Stat3 antisense, 48 hours)?
A: occurrence of apoptosis was confirmed

Q: And the “cleavage of poly-(ADP-ribose) polymerase” value ([1]; Stat3 antisense, 48 hours after treatment)?
A: cleavage of poly-(ADP-ribose) polymerase

Q: And the “vacuolated cells and cellular debris (light microscopy)” value ([1]; incubation for up to 48 hours)?
A: marked increase in vacuolated cells and cellular debris

Q: And the “Stat3 mRNA expression” value [6]?
A: diminished Stat3 mRNA expression

Q: What about the “expression of Bcl-2 family proteins by microarray analysis” value [7] of the same molecule?
A: did not reveal consistent decreases

Q: And the “expression of other IAP family members (X-linked IAP, cellular IAP-1, cellular IAP-2) by microarray” value [7]?
A: no change

Q: And the “expression of Survivin by microarray analysis” value ([7]; antisense vs control mismatch)?
A: found to be diminished

Q: And the apoptosis ([8]; H1299 cells, despite Stat3 knock-down)?
A: No apoptosis was observed

Q: What about the Stat3 protein levels ([8]; H1650 and H1975 cells) of the same molecule?
A: decreased Stat3 protein levels

Q: What about the “cleavage of poly(ADP-ribose) polymerase indicative of apoptosis” value ([8]; H1650 and H1975 cells) of the same molecule?
A: cleavage of poly(ADP-ribose) polymerase

Q: And the “Levels of the Bcl-2 family proteins Bcl-xL, Mcl-1, and Bcl-2” value ([8]; cells treated with antisense Stat3 vs mismatch control)?
A: reduced

Q: “IL-6: interleukin-6, cytokine used to stimulate cells and increase Stat3 activation” was tested. Which “Stat3 DNA-binding activity (EMSA)” value [9] did it give?
A: increases Stat3 DNA-binding activity

Q: And the “Survivin protein expression (Western blot)” value [10]?
A: induced

Q: And the “phosphor-Stat3 levels (Western blot)” value [10]?
A: induced

— patent US8133692B2, “Methods of predicting responsiveness to chemotherapeutic agents and selecting treatments” (University of South Florida, priority 2005, dated 2012)
